The values below come from US6441169B1, “Pyrimidin-2-oxy-4-one and pyrimidin-2-oxy-4-thione derivatives” (Syngenta Crop Protection, Inc., priority 1997, dated 2002).

The subject of data set [1] is Venturia inaegualis. In words: B-3 Residual-protective action against Venturia inaegualis on apples. Particulars: apple cuttings; spray 0.02% a.i.; infected 24 hours later; evaluation 12 days after infection. It counts as in vivo. The method, then: Residual-protective Action Against Venturia inaegualis on Apples Apple cuttings with fresh shoots 10 to 20 cm long are sprayed to drip point with a spray mixture (0.02% a.i.) prepared from a wettable powder formulation of the test compound. The plants are infected 24 hours later with a conidia suspension of the fungus. The plants are then incubated for 5 days at 90 to 100% relative humidity and stood in a greenhouse for a further 10 days at 20 to 24° C. Evaluation of the fungal infestation is made 12 days after infection.

In data set [2] the test system is Colletotrichum lagenarium. Description: B-2 Action against Colletotrichum lagenarium on cucumbers. It counts as in vivo. Particulars: cucumber plants; spray concentration 0.002%; infected 2 days later; evaluation 8 days after infection. The method, then: Action Against Colletotrichum lagenarium on Cucumbers After a growth period of 2 weeks, cucumber plants are sprayed with an aqueous spray mixture (concentration 0.002%) prepared from a wettable powder formulation of the test compound and infected 2 days later with a spore suspension (1.5×10^5 spores/ml) of the fungus and incubated for 36 hours at 23° C. and high humidity. Incubation is then continued at normal humidity and c. 22° C. Evaluation of the fungal infestation is made 8 days after infection.

In data set [3] the test system is Puccinia graminis. The data set is classed as in vivo. Particulars: wheat plants; a) spray 0.02% active ingredient, infected 24 hours later; b) soil drench 0.006% a.i., infected after 48 hours; evaluation 12 days after infection.

For `CCCn1c(OCC2CC2C)nc2c(Br)csc2c1=O` (centres unmarked) [Compound 4.23], the “activity against Venturia inaegualis (fungal infestation)” value (from here on “activity against Venturia inaegualis”) in data set [1] is “good activity”. The “activity against Colletotrichum lagenarium (fungal infestation)” value in data set [2] is given as “good to excellent activity”. For the same compound, in data set [3], the “activity against Puccinia graminis (fungal infestation)” value (“activity against Puccinia graminis” for short) is “good to excellent activity”.
As to `CCCn1c(OCC2CC2C)nc2sc(Br)cc2c1=O` (centres unmarked) [Compound 3.22, 6-bromo-2-(2-methylcyclopropylmethoxy)-3-n-propyl-3H-thieno[2.3-d]pyrimidin-4-one], the “activity against Venturia inaegualis” value in data set [1] is reported as “good activity”. The “activity against Colletotrichum lagenarium (fungal infestation)” value in data set [2] was “good to excellent activity”. Besides, in data set [3], the “activity against Puccinia graminis” value was “good to excellent activity”.
Regarding `CC1(COc2nc3ccc(Br)cc3c(=O)n2CC2CC2)CC1` [Compound 1.15], in data set [1], the “activity against Venturia inaegualis” value is “good activity”. In addition, the “activity against Colletotrichum lagenarium (fungal infestation)” value in data set [2] was “good to excellent activity”. Moreover, the “activity against Puccinia graminis” value in data set [3] was “good to excellent activity”.
In general, melting point refers to the temperature, or range, at which the solid turns liquid. Consider `CCCn1c(OCC2(C)CC2)nc2ccc(Br)cc2c1=O` [Compound 1.7, 6-bromo-2-(1-methylcyclopropylmethoxy)-3-n-propyl-3Hquinazoline-4-one], for which the melting point fell in the range of 81 to 85 °C. In addition, the “activity against Venturia inaegualis” value in data set [1] is “good activity”. The “activity against Colletotrichum lagenarium (fungal infestation)” value in data set [2] is “good to excellent activity”. Also, the “activity against Puccinia graminis” value in data set [3] was “good to excellent activity”.
For `CCCn1c(OCC2CC2C)nc2sc(Cl)cc2c1=O` (centres unmarked) [Compound 3.21, 6-chloro-2-(2-methylcyclopropylmethoxy)-3-n-propyl-3H-thieno[2.3-d]pyrimidin-4-one], in data set [1], the “activity against Venturia inaegualis” value was “good activity”. The “activity against Colletotrichum lagenarium (fungal infestation)” value in data set [2] is listed as “good to excellent activity”. Besides, the “activity against Puccinia graminis” value in data set [3] is listed as “good to excellent activity”.
On to `CC1CC1COc1nc2ccc(Br)cc2c(=O)n1CC1CC1` (centres unmarked) [Compound 1.30], for which the “activity against Venturia inaegualis” value in data set [1] is recorded as “good activity”. Also, in data set [2], the “activity against Colletotrichum lagenarium (fungal infestation)” value was “good to excellent activity”. In addition, the “activity against Puccinia graminis” value in data set [3] is recorded as “good to excellent activity”.
Regarding `CCCn1c(OCC2(C)CC2)nc2sc(Br)cc2c1=O` [Compound 3.7, 6-bromo-2-(1-methylcyclopropylmethoxy)-3-n-propyl-3H-thieno[2.3-d]pyrimidin-4-one], in data set [1], the “activity against Venturia inaegualis” value is recorded as “good activity”. The “activity against Colletotrichum lagenarium (fungal infestation)” value in data set [2] is on record as “good to excellent activity”. The “activity against Puccinia graminis” value in data set [3] was “good to excellent activity”.
As for `CCCn1c(OCC2CC2(F)F)nc2sc(Cl)cc2c1=O` (centres unmarked) [Compound 3.51], the “activity against Venturia inaegualis” value in data set [1] is reported as “good activity”. Also, in data set [2], the “activity against Colletotrichum lagenarium (fungal infestation)” value is recorded as “good to excellent activity”. Further, the “activity against Puccinia graminis” value in data set [3] was “good to excellent activity”.
Consider `CCCn1c(OCC2CC2(Cl)Cl)nc2ccc(Br)cc2c1=O` (centres unmarked) [Compound 1.37], for which, in data set [1], the “activity against Venturia inaegualis” value is on record as “good activity”. For the same compound, the “activity against Colletotrichum lagenarium (fungal infestation)” value in data set [2] is reported as “good to excellent activity”. For the same compound, the “activity against Puccinia graminis” value in data set [3] was “good to excellent activity”.
Turning to `CCCn1c(OCC2(C)CC2)nc2sc(Cl)cc2c1=O` [Compound 3.6, 6-chloro-2-(1-methylcyclopropylmethoxy)-3-n-propyl-3H-thieno[2.3-d]pyrimidin-4-one], the “activity against Venturia inaegualis” value in data set [1] is “good activity”. In addition, the “activity against Colletotrichum lagenarium (fungal infestation)” value in data set [2] is “good to excellent activity”. Also, the “activity against Puccinia graminis” value in data set [3] is given as “good to excellent activity”.
In the case of `CCCn1c(OCC2CC2(F)F)nc2sc(Br)cc2c1=O` (centres unmarked) [Compound 3.52], in data set [1], the “activity against Venturia inaegualis” value is given as “good activity”. Also, the “activity against Colletotrichum lagenarium (fungal infestation)” value in data set [2] is “good to excellent activity”. Moreover, the “activity against Puccinia graminis” value in data set [3] is listed as “good to excellent activity”.
In the case of `CCCn1c(OCC2CC2C)nc2ccc(Br)cc2c1=O` (centres unmarked) [Compound 1.22, 6-bromo-2-(2-methylcyclopropylmethoxy)-3-n-propyl-3H-quinazoline-4-one], the melting point lay within 49 to 51 °C. Further, the “activity against Venturia inaegualis” value in data set [1] was “good activity”. Moreover, in data set [2], the “activity against Colletotrichum lagenarium (fungal infestation)” value was “good to excellent activity”. In addition, the “activity against Puccinia graminis” value in data set [3] is given as “good to excellent activity”.
On to `CCCn1c(OCC2(C)CC2)nc2c(Br)csc2c1=O` [Compound 4.8], for which the “activity against Venturia inaegualis” value in data set [1] is on record as “good activity”. In addition, in data set [2], the “activity against Colletotrichum lagenarium (fungal infestation)” value is “good to excellent activity”. Moreover, the “activity against Puccinia graminis” value in data set [3] is “good to excellent activity”.
On to `CCCCn1c(OCC2(C)CC2)nc2ccc(Br)cc2c1=O` [Compound 1.10, 6-bromo-2-(1-methylcyclopropylmethoxy)-3-n-buyl-3H-quinazoline-4-one], for which the “activity against Venturia inaegualis” value in data set [1] is reported as “good activity”. Moreover, the “activity against Colletotrichum lagenarium (fungal infestation)” value in data set [2] was “good to excellent activity”. Also, the “activity against Puccinia graminis” value in data set [3] is listed as “good to excellent activity”.
Consider `CCCn1c(OCC2CC2(Cl)Cl)nc2sc(Cl)cc2c1=O` (centres unmarked) [Compound 3.36, 6-chloro-2-(2,2-Dichlorocyclopropylmethoxy)-3-n-propyl-3H-thieno-[2.3-d]pyrimidin-4-one], for which, in data set [1], the “activity against Venturia inaegualis” value is “good activity”. For the same compound, the “activity against Colletotrichum lagenarium (fungal infestation)” value in data set [2] is recorded as “good to excellent activity”. Moreover, in data set [3], the “activity against Puccinia graminis” value is “good to excellent activity”.
In the case of `CCCCn1c(OCC2CC2C)nc2ccc(Br)cc2c1=O` (centres unmarked) [Compound 1.25, 6-bromo-2-(2-methylcyclopropylmethoxy)-3-n-buyl-3H-quinazoline-4-one], the “activity against Venturia inaegualis” value in data set [1] was “good activity”. The “activity against Colletotrichum lagenarium (fungal infestation)” value in data set [2] was “good to excellent activity”. For the same compound, the “activity against Puccinia graminis” value in data set [3] is “good to excellent activity”.
